Measured values published in patent US8536207B2, “Method for treating a keratoconjunctival disorder” (Santen Pharmaceutical Co., Ltd., priority 2005, dated 2013).

Columns and labels:
[1] = tested on: corneal damage in rats in which the exorbital lacrimal gland was removed; assay: Test for therapeutic effect on corneal damage using rats in which the exorbital lacrimal gland was removed; assay type: in vivo, male SD rats; conditions: for Improvement ratio (%) of corneal damage: fluorescein staining score vs saline control
Method: 1. Test for Therapeutic Effect on Corneal Damage Using Rats in which the Exorbital Lacrimal Gland was Removed
Using male SD rats, corneal disorder models were produced in accordance with the method of Fujihara et al. (Invest. Ophthalmol. Vis. Sci. 42 (1): 96-100 (2001)). After the production of the corneal disorder models, the improvement ratio of corneal damage was evaluated by a method (Journal of the eye 21 (1): 87-90 (2004)) modified from the method of Miyata et al. (Japanese Review of Clinical Ophthalmology 48 (2): 183-188 (1994)).
Male SD rats were systemically anesthetized by an administration of Nembutal. Subsequently, the exorbital lacrimal gland of each rat was removed and a corneal damage was induced over a period of 2 months.
A physiological saline solution containing ebselen (25 μM) was instilled into both eyes 6 times a day for 14 days (one group consisting of 8 animals).
A physiological saline solution containing edaravone (200 μM) was instilled into both eyes 6 times a day for 14 days (one group consisting of 8 animals).
A physiological saline solution containing α-lipoic acid (200 μM) was instilled into both eyes 6 times a day for 14 days (one group consisting of 8 animals).
In a control group, physiological saline was instilled into both eyes 6 times a day for 14 days (one group consisting of 8 animals)
Fourteen days after the start of instillation, the damaged parts of the cornea were stained with fluorescein. For each of the upper, middle and lower parts of the cornea, the degree of fluorescein staining was evaluated by scoring according to the criteria shown below and the improvement ratio of corneal damage was calculated from the mean value of the total scores for each of the above-mentioned parts.
1: Scattered staining (punctate staining being separated)
2: Moderate staining (a part of punctate staining being adjacent)
3: Heavy staining (punctate staining being barely separated)
Incidentally, intermediate values (at intervals of 0.5) were set between the respective scores.
By taking the mean value of the scores for the control group (physiological saline) as a standard (improvement ratio: 0%) and according to the calculation equation shown below, the improvement ratios for the ebselen (25 μM) administration group and the edaravone (200 μM) administration group and α-lipoic acid (200 μM) administration group were calculated, respectively, which are shown in Table 1. Incidentally, the mean value of the scores is a mean of those of 8 cases in each group. Improvement ratio (%)={(control)−(administered compound)}/damage degree×100 Damage degree=(control)−(normal eye)

[2] = tested on: corneal damage in senescence-accelerated mouse model P10 (SAMP10); assay: Pharmacological test using SAMP10 (corneal damage, fluorescein staining); assay type: in vivo; conditions: for Score of fluorescein staining: mean±standard error, maximum 9 points
Method: 2. Pharmacological Test Using SAMP10
Using senescence-accelerated mouse model P10 (hereinafter referred to as SAMP10), an effect of ebselen on a corneal damage was evaluated in accordance with the method of Hirai, Shibagaki et al. (JP-A-2006-104913). Incidentally, as a control animal, SAMR1 with normal senescence was used.
SAMP10 develops a corneal disorder with aging. Accordingly, a corneal damage of female SAMP10 at 16 weeks of age (before a change caused by aging is observed) was evaluated, and then, administration of an ebselen solution or its vehicle was started. At 8 weeks after the start of administration (at 24 weeks of age), the same evaluation was carried out again. In the same manner, a corneal damage of female SAMR1 at 16 weeks of age was evaluated, and thereafter, administration of the above-mentioned vehicle was started. Then, at 8 weeks after the start of administration (at 24 weeks of age), the same evaluation was carried out again.
Ebselen suspensions obtained by suspending it in a 1% (w/v) methyl cellulose aqueous solution (prepared by dissolving methyl cellulose in ultrapure water) at a concentration of 0.45 mg/mL and 4.5 mg/mL respectively were orally administered to female SAMP10 once a day at a dose of 6.67 μL per g of body weight of mouse. The both administration groups were determined to be a 3 mg/kg group and a 30 mg/kg group, respectively. The administration was carried out 5 days a week (Mon, Tue, Wed, Thu, Fri) over a period of 8 weeks. As a control, a 1% (w/v) methyl cellulose aqueous solution was orally administered to SAMP10 in the same manner at a dose of 6.67 μL per g of body weight of mouse. Further, to the control animal, female SAMR1, a 1% (w/v) methyl cellulose aqueous solution was orally administered in the same manner. Incidentally, the number of animals in each group of SAMP10 is 22 eyes (11 mice), and the number of SAMR1 is 16 eyes (8 mice).
The damaged parts of the cornea of SAMP10 and SAMR1 were stained with fluorescein immediately before and at 8 weeks after the start of administration. For each of the upper, middle and lower parts of the cornea, the degree of fluorescein staining was evaluated by scoring according to the evaluation criteria described in “1. Test for therapeutic effect on corneal damage using rat models in which the exorbital lacrimal gland was removed”, and the scoring of the degree of corneal damage (a maximum score of 9 points) was carried out by obtaining the total scores for each of the above-mentioned parts.
Incidentally, the scores in the table are expressed as mean±standard error in each group.

[3] = 200 μM in physiological saline instilled into both eyes 6 times a day for 14 days

SMILES | Improvement ratio (%) of corneal damage [1, 3] [%] | Staining score compared with the vehicle administration group of SAMP10 ([2]; 3 mg/kg and 30 mg/kg groups, 24 weeks of age, Dunnett's test p < 0.05) | Score of fluorescein staining ([2]; SAMP10, 3 mg/kg group, 16 weeks of age (immediately before start of administration)) | Score of fluorescein staining ([2]; SAMP10, 3 mg/kg oral once a day, 5 days a week for 8 weeks, 24 weeks of age) | Score of fluorescein staining ([2]; SAMP10, 30 mg/kg group, 16 weeks of age (immediately before start of administration)) | Score of fluorescein staining ([2]; SAMP10, 30 mg/kg oral once a day, 5 days a week for 8 weeks, 24 weeks of age) | Improvement ratio (%) of corneal damage ([1]; 25 μM in physiological saline instilled into both eyes 6 times a day for 14 days) [%] | Improvement ratio compared with edaravone and α-lipoic acid ([1]; ebselen 25 μM vs comparators 200 μM, instillation for 14 days)
CC1=NN(c2ccccc2)C(=O)C1 [Edaravone, 3-methyl-1-phenyl-2-pyrazolin-5-one] | 36.9 | – | – | – | – | – | – | –
O=c1c2ccccc2[se]n1-c1ccccc1 [Ebselen, 2-phenyl-1,2-benzisoselenazol-3(2H)-one] | – | significantly decreased | 2.61 ± 0.38 | 2.95 ± 0.45 | 2.45 ± 0.30 | 2.68 ± 0.33 | 76.5 | more than twice as high
O=C(O)CCCCC1CCSS1 (stereo in doubt) [α-Lipoic acid, (3R)-1,2-dithiolane-3-pentanoic acid] | 30.8 | – | – | – | – | – | – | –
